Tested on: non-transgenic plants (soybean seedlings), wounded axillary areas
Experiment: Glyphosate top selection dose finding: suppression of axillary meristem regeneration
Format: in vivo
Settings: 10, 25, 50, 75, 100 or 200 uM applied on the wounded axillary areas, non-lethal but sufficient to suppress regeneration within 2 weeks
Source text: 1) Germination: Soybean seeds were sown in 2.5 inch pots, two seeds in each pot. 4-7 day old seedlings grown from the seeds were used for cotyledon axillary meristem transformation.
2) Wound axillary meristems: The axillary meristems located in the axil of cotyledons were completely removed. The stem cells located in the base of the axillary meristem were transformed using Agrobacterium as described below. To break the dormancy of the axillary meristem, the primary shoot meristem was removed at the same time, or 3-7 days' later.
5) Selection: To determine the glyphosate concentrations effectively suppressing axillary meristem regeneration in top selection, non-transgenic plants were used and 10 uM to 200 uM glyphosate (specifically 10, 25, 50, 75, 100, or 200 uM glyphosate) was applied on the wounded axillary areas.

O=C(O)CNCP(=O)(O)O [glyphosate]
glyphosate concentrations effectively suppressing axillary meristem regeneration in top selection: 75 to 200 µM

Source: patent US20220389437A1, “METHODS OF IN PLANTA TRAN[…] AXILLARY MERISTEM” (SYNGENTA CROP PROTECTION AG, priority 2019, published 2022)
